From US7838542B2, “Bicyclic compositions and methods for modulating a kinase cascade” (Kinex Pharmaceuticals, LLC, priority 2006, dated 2010)

Assays:
isolated kinases = assay: Isolated kinases panel, percent activity relative to control (Table XV); format: biochemical
Text: (§1) Table XV illustrates percent activity of isolated kinases in the presence of the AstraZeneca ATP-competitive inhibitor (KX-328, AZ-28) or KX2-391 relative to control (untreated) isolated kinases.

Abl = Abl (Homo sapiens, UniProt P00519); assay: Isolated kinase assay, Abl; format: biochemical
Text: as §1

EGFRTK = EGFRTK (Homo sapiens, UniProt P00533); assay: Isolated kinase assay, EGFRTK; format: biochemical
Text: as §1

Fyn = Fyn (Homo sapiens, UniProt P06241); assay: Isolated kinase assay, Fyn; format: biochemical
Text: as §1

Lck = Lck (Homo sapiens, UniProt P06239); assay: Isolated kinase assay, Lck; format: biochemical
Text: as §1

Lyn = Lyn (Homo sapiens, UniProt P07948); assay: Isolated kinase assay, Lyn; format: biochemical
Text: as §1

Yes = Yes (Homo sapiens, UniProt P07947); assay: Isolated kinase assay, Yes; format: biochemical
Text: as §1

[1] = tested on: PDGF receptor tyrosine kinase; assay: Isolated kinase assay, PDGF receptor tyrosine kinase; format: biochemical; conditions: @ 10 μM
Text: as §1

Src = Src (Homo sapiens, UniProt P12931); assay: Isolated kinase assay and titration, Src; format: biochemical; conditions: titration data
Text: as §1

[2] = tested on: c-Src/NIH-3T3 engineered cell line; assay: Src-driven cell growth, c-Src/NIH-3T3; format: cell-based
[3] = tested on: NCI human colon cancer cell line HT29; assay: Cell growth, HT29; format: cell-based
Src-Y416 = assay: Intracellular phosphorylation: Src-Y416 autophosphorylation; format: cell-based; conditions: HT29 and c-Src527F/NIH-3T3 cells; 0.2×, 1×, 5×, 25× GI50
Protocol: (§2) HT29 (colon cancer) and c-Src527F/NIH-3T3 (Src transformed) cell lines were treated with KX2-391 or with AstraZeneca's ATP competitive Src inhibitor AZ28. AZ28 serves as a positive comparator to show what a validated Src inhibitor should do in these assays. After treatment with compound, cells were lysed, subjected to PAGE and probed with a battery of antibodies. […] In addition, off-target protein phosphorylation was also investigated. Further, induction of apoptosis was evaluated via Caspase 3 cleavage. Multiple doses of each compound were tested because the trends in response to increasing drug concentration are the most reliable indicator of activity.
(§3) The same range of multiples of the GI50 for AZ28 in these two cell lines was run as a comparison.

FAK Tyr 925 = assay: Intracellular phosphorylation: FAK Tyr 925; format: cell-based; conditions: c-Src/NIH-3T3 and HT-29 cells
Protocol: as §2, §3

Shc Y239/240 = assay: Intracellular phosphorylation: Shc Y239/240; format: cell-based; conditions: c-Src/NIH-3T3 and HT-29 cells
Protocol: as §2, §3

Paxillin Y-31 = assay: Intracellular phosphorylation: Paxillin Y-31; format: cell-based; conditions: c-Src/NIH-3T3 cells
Protocol: as §2, §3
Note: paxillin Y-31 was not detected in HT29 cells with or without added drug.

Caspase-3 = assay: Induction of apoptosis via Caspase 3 cleavage; format: cell-based; conditions: HT29 and c-Src527F/NIH-3T3 cells
Protocol: as §2
Cleavage of Caspase-3 is a good measure of induction of apoptosis.

total phosphotyrosine = assay: Total phosphotyrosine levels; format: cell-based; conditions: HT29 and c-Src527F/NIH-3T3 cells
Protocol: as §2

[4] = tested on: PDGF receptor tyrosine kinase Y572/574; assay: PDGF receptor autophosphorylation Y572/574; format: cell-based; conditions: c-Src/NIH-3T3 cells
Protocol: as §2
PDGF receptor tyrosine kinase autophosphorylates on Y572/574. This is thought not to be a direct Src substrate in cells. […] PDGF receptor tyrosine kinase Y572/574 was not detected in HT29 cells with no drug added (as well as with drug added).

FAK Y397 = FAK Y397 autophosphorylation; format: cell-based; conditions: c-Src527F/NIH3T3 cells
Protocol: as §2
FAK Y397 is mainly a FAK autophosphorylation site and only a poor Src transphorylation site.

EGFR tyrosine kinase = EGFR tyrosine kinase autophosphorylation; format: cell-based; conditions: c-Src/NIH-3T3 and HT-29 cells
Protocol: as §2
This site is not a direct Src phosphorylation site.

CHK1(h) = CHK1(h) (Homo sapiens, UniProt O14757); assay: Isolated kinases, percent activity relative to control (Table XV), CHK1; format: biochemical; conditions: @ 10 μM
Text: as §1

FGFR2(h) = FGFR2(h) (Homo sapiens, UniProt P21802); assay: Isolated kinases, percent activity relative to control (Table XV), FGFR2; format: biochemical; conditions: @ 10 μM
Text: as §1

IGF-1R(h) = IGF-1R(h) (Homo sapiens, UniProt P08069); assay: Isolated kinases, percent activity relative to control (Table XV), IGF-1R; format: biochemical; conditions: @ 10 μM
Text: as §1

IR(h) = IR(h) (Homo sapiens, UniProt P06213); assay: Isolated kinases, percent activity relative to control (Table XV), IR; format: biochemical; conditions: @ 10 μM
Text: as §1

MAPK2(h) = MAPK2(h) (Homo sapiens, UniProt P28482); assay: Isolated kinases, percent activity relative to control (Table XV), MAPK2; format: biochemical; conditions: @ 10 μM
Text: as §1

PKCα(h) = PKCα(h) (Homo sapiens, UniProt P17252); assay: Isolated kinases, percent activity relative to control (Table XV), PKCα; format: biochemical; conditions: @ 10 μM
Text: as §1

Pyk2(h) = Pyk2(h) (Homo sapiens, UniProt Q14289); assay: Isolated kinases, percent activity relative to control (Table XV), Pyk2; format: biochemical; conditions: @ 10 μM
Text: as §1

ZAP-70(h) = ZAP-70(h) (Homo sapiens, UniProt P43403); assay: Isolated kinases, percent activity relative to control (Table XV), ZAP-70; format: biochemical; conditions: @ 10 μM
Text: as §1

PI3 kinase = assay: Isolated kinases, percent activity relative to control (Table XV), PI3 kinase; format: biochemical; conditions: @ 10 μM
Text: as §1

Lyn, sequence (P07948 whole entry): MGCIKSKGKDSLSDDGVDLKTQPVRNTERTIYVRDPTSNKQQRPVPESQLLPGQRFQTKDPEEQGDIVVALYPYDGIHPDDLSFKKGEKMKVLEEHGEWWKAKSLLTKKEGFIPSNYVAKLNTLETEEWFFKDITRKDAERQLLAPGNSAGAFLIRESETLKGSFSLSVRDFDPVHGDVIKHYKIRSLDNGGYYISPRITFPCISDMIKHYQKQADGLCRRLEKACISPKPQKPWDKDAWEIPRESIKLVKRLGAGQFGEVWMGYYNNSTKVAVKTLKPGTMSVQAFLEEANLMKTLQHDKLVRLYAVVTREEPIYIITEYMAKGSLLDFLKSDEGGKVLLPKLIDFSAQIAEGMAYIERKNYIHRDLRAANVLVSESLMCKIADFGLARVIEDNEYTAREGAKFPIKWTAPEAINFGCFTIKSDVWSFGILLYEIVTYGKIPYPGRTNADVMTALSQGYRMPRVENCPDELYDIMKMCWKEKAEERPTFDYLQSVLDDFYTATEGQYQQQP
Lck, sequence (P06239 whole entry): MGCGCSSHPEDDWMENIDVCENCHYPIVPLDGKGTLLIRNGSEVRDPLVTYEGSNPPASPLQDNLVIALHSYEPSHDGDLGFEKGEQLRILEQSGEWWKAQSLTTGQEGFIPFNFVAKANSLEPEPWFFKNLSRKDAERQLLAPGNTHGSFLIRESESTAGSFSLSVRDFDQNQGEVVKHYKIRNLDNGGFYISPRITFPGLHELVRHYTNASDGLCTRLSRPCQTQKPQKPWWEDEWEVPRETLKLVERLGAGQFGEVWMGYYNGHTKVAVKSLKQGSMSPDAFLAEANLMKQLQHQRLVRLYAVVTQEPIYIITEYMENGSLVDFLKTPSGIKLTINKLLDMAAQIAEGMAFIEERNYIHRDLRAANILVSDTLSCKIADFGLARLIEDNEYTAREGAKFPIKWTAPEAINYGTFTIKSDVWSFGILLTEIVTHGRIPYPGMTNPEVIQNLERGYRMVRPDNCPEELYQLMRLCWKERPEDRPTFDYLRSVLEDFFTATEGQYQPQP
Yes, sequence (P07947 whole entry): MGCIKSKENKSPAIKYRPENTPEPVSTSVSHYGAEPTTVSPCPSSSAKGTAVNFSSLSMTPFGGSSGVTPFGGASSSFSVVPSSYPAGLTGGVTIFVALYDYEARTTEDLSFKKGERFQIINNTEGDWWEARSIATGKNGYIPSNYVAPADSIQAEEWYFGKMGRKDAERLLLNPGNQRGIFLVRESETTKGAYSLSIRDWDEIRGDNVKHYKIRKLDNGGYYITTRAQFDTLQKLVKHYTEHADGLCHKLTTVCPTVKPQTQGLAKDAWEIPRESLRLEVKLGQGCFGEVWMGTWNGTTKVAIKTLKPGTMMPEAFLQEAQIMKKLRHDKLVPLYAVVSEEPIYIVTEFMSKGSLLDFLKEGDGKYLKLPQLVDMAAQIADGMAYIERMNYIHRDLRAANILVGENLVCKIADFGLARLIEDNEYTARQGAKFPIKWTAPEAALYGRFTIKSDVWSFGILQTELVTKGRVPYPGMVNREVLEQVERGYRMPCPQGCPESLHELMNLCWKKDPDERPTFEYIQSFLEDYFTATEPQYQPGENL
Abl, sequence (P00519 whole entry): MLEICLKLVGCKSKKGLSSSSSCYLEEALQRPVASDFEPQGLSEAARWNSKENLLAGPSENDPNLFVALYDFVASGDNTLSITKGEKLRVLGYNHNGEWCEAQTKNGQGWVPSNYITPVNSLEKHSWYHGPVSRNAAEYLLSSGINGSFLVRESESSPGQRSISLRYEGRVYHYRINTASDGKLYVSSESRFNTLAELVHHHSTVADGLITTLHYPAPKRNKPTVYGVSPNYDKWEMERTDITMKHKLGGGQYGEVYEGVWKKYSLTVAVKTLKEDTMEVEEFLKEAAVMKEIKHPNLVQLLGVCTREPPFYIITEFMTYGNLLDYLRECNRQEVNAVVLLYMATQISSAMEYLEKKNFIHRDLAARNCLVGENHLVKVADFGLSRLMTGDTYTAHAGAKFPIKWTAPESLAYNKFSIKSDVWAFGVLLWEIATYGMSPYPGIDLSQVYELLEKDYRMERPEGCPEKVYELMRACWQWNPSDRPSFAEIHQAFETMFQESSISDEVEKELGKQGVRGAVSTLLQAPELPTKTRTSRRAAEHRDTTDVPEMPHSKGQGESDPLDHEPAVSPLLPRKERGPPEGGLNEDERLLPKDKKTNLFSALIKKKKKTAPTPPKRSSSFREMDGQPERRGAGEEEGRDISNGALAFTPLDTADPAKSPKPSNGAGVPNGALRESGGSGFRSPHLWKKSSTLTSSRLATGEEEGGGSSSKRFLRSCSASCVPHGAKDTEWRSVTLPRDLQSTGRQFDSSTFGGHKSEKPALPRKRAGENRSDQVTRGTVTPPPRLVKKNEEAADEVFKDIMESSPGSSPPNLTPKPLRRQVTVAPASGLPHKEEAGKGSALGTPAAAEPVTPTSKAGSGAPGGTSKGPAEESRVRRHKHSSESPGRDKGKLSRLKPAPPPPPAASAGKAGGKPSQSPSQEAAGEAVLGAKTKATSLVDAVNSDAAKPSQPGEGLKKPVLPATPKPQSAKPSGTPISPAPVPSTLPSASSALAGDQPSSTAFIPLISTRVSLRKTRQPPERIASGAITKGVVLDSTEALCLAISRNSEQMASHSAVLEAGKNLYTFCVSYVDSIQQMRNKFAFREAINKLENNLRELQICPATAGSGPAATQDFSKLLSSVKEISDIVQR
Fyn, sequence (P06241 whole entry): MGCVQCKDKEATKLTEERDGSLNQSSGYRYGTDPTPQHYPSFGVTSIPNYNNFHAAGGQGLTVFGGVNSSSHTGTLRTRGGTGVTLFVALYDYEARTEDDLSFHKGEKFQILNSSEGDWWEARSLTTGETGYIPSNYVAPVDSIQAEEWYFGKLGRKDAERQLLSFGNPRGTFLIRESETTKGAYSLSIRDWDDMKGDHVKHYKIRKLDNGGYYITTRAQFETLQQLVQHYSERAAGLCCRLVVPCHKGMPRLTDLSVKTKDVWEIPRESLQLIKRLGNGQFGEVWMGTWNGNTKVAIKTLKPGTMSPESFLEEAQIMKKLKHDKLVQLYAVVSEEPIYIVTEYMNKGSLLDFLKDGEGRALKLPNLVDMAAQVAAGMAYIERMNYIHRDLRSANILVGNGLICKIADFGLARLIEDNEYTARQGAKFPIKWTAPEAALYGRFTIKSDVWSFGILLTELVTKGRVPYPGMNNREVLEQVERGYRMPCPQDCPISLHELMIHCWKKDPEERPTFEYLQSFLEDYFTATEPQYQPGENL
EGFRTK, sequence (P00533 25-1210): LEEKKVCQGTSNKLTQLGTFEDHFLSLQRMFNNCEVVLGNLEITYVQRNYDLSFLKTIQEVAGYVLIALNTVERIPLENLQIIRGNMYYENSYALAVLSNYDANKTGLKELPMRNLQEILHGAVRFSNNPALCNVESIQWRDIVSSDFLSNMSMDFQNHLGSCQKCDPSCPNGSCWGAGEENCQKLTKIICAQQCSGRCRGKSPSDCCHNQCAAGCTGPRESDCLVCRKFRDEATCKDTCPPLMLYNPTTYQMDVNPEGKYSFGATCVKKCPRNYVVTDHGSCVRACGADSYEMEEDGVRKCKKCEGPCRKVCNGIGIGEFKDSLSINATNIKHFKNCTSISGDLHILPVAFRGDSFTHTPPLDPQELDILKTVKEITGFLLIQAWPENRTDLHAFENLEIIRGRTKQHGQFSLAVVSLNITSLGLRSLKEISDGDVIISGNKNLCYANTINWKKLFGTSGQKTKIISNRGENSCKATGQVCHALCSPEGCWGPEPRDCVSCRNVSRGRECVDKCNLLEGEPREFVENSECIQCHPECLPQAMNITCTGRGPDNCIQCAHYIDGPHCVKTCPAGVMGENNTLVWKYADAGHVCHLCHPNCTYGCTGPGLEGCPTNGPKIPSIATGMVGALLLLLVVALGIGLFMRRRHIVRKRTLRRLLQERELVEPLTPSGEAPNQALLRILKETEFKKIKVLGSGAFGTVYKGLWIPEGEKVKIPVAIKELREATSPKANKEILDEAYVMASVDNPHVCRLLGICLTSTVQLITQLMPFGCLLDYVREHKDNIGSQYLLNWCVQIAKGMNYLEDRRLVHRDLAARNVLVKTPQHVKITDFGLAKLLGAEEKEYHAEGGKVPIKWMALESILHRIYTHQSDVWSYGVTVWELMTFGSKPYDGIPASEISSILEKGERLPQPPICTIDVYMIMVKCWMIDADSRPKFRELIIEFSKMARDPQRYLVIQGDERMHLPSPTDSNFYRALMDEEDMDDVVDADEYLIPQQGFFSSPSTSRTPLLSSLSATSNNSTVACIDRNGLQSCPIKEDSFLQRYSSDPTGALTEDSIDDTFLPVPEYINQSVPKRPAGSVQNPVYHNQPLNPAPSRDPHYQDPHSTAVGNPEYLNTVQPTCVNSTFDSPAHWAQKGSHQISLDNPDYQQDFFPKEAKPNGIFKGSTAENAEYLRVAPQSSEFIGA
Src, sequence (P12931 whole entry): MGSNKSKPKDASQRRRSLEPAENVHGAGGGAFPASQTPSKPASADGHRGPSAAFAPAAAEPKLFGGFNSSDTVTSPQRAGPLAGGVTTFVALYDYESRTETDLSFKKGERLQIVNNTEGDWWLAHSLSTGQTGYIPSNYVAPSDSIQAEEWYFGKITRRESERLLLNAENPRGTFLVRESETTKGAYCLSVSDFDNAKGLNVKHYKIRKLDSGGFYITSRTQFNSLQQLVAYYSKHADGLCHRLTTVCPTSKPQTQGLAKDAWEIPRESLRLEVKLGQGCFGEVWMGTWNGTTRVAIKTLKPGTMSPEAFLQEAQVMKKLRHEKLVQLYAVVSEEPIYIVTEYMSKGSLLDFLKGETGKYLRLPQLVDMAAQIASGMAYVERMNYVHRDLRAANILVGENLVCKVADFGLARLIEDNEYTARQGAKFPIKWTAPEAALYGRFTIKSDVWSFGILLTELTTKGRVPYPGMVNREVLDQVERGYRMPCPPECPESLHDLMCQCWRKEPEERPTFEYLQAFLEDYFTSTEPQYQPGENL

Compound: O=C(Cc1ccc(-c2ccc(OCCN3CCOCC3)cc2)cn1)NCc1ccccc1 [KX2-391]
- activity against isolated kinases (isolated kinases): weak activity against isolated kinases
- inhibition of isolated Abl (Abl): poor inhibition
- percent activity of isolated kinase relative to control, Ab1(h) (Abl; @ 10 μM): 120%
- inhibition of isolated EGFRTK (EGFRTK): poor inhibition
- percent activity of isolated kinase relative to control, EGFR(h) (EGFRTK; @ 10 μM): 134%
- inhibition of isolated Fyn (Fyn): poor inhibition
- percent activity of isolated kinase relative to control, Fyn(h) (Fyn; @ 10 μM): 85%
- inhibition of isolated Lck (Lck): poor inhibition
- percent activity of isolated kinase relative to control, Lck(h) (Lck; @ 10 μM): 109%
- inhibition of isolated Lyn (Lyn): poor inhibition
- percent activity of isolated kinase relative to control, Lyn(h) (Lyn; @ 10 μM): 113%
- inhibition of isolated Yes (Yes): poor inhibition
- percent activity of isolated kinase relative to control, Yes(h) (Yes; @ 10 μM): 92%
- percent activity of isolated kinase relative to control, PDGFRβ(h) [1]: 110%
- IC50 (Src): 46000 nM
- GI50 [2]: 13 nM
- GI50 [3]: 23 nM
- Src-Y416 autophosphorylation (Src-Y416): expected dose response
- phosphorylation of FAK Tyr 925 (FAK Tyr 925): inhibited Src trans-phosphorylation
- phosphorylation of Shc Y239/240 (Shc Y239/240): inhibited Src trans-phosphorylation
- phosphorylation of Paxillin Y-31 (Paxillin Y-31): inhibited Src trans-phosphorylation
- induction of apoptosis (Caspase-3 cleavage) (Caspase-3): very effective in inducing apoptosis
- total phosphotyrosine levels (total phosphotyrosine): reduction in the total phosphotyrosine levels
- PDGF receptor autophosphorylation [4]: Some effect is seen
- FAK autophosphorylation (Y397) (FAK Y397): no inhibition of FAK autophosphorylation
- EGFR tyrosine kinase autophosphorylation (EGFR tyrosine kinase): less active
- percent activity of isolated kinase relative to control, CHK1(h) (CHK1(h)): 105%
- percent activity of isolated kinase relative to control, FGFR2(h) (FGFR2(h)): 94%
- percent activity of isolated kinase relative to control, IGF-1R(h) (IGF-1R(h)): 101%
- percent activity of isolated kinase relative to control, IR(h) (IR(h)): 112%
- percent activity of isolated kinase relative to control, MAPK2(h) (MAPK2(h)): 112%
- percent activity of isolated kinase relative to control, PKCα(h) (PKCα(h)): 111%
- percent activity of isolated kinase relative to control, Pyk2(h) (Pyk2(h)): 97%
- percent activity of isolated kinase relative to control, ZAP-70(h) (ZAP-70(h)): 108%
- percent activity of isolated kinase relative to control, PI3 kinase (PI3 kinase): 100%
